The text below walks through data of ChEMBL document CHEMBL1177690, “Target-specific control of lymphoid-specific protein tyrosine phosphatase (Lyp) activity” (Bioorg Med Chem, 2010).

Assay [1] can be described thus: Activity at Lyp CCPGCC mutant expressed in Escherichia coli using pNPP as a substrate […].
The target in assay [2] is T1, Tyrosine-protein phosphatase non-receptor type 22 (Homo sapiens) (UniProt Q9Y2R2).
T1 sequence (whole entry): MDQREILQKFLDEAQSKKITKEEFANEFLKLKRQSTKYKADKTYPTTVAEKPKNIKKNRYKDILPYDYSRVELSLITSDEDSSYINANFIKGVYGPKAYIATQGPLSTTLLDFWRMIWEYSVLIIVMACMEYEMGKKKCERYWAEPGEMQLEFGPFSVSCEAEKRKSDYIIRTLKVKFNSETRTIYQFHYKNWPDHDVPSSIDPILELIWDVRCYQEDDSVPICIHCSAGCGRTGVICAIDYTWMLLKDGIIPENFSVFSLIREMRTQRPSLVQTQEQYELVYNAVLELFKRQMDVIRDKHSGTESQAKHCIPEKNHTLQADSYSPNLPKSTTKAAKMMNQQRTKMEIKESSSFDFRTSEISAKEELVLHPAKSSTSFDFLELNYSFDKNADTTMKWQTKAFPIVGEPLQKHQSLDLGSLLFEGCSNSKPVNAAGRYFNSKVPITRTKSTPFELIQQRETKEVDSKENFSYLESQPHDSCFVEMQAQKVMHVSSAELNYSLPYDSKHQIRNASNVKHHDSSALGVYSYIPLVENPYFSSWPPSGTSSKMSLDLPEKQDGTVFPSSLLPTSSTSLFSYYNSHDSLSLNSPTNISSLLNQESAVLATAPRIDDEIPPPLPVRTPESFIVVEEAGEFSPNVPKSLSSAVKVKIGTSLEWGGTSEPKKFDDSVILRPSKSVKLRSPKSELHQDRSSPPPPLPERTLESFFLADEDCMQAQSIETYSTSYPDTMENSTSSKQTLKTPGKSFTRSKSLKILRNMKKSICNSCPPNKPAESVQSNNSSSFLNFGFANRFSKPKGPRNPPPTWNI
Kind of assay: Inhibition of Lyp expressed in Escherichia coli […].

For `O=C(O)c1ccccc1-c1c2ccc(=O)c([As]3SCCS3)c-2oc2c([As]3SCCS3)c(O)ccc12`, the kcat in assay [1] came to 0.057 s⁻¹. Moreover, the Activity result in assay [2] is “Dose-dependent effect”.

For orientation: kcat means the number of substrate molecules converted per active site and unit of time at saturation.
